Here are results for twelve compounds from patent publication US4559339A, “Indol-3-yl-quinazolino-1,4-benzodiazepin-5,13-diones” (Merck & Co., Inc., priority 1985, dated 1985).

Broadly, the pIC50 is the negative decadic logarithm of the IC50, by convention in mol/L.

pIC50: −log10 of the molar value. Like-named read-outs stand apart in the source and are kept apart here.

For one experiment, the target named is T1, CCK receptor (brain) (Cavia porcellus, UniProt H0VZC5).
T1 construct: The cerebral cortex is dissected and used as a receptor source; from tissue; host or cells: cerebral cortex of male Hartley guinea pig, membrane homogenate
T1 sequence (H0VZC5 1-426): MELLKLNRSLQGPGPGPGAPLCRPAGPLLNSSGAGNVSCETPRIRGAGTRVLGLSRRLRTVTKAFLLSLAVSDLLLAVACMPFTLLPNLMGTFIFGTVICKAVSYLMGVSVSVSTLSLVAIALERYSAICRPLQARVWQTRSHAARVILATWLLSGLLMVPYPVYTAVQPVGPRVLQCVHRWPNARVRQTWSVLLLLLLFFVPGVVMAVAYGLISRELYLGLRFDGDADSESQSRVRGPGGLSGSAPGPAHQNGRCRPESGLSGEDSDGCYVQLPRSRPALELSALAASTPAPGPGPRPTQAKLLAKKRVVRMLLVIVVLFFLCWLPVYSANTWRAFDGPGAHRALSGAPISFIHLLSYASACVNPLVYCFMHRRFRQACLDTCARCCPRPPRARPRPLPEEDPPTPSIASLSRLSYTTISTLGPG
Description: CCK receptor binding (brain) method. The arrangement: species or system Hartley guinea pig. The conditions noted are these: guinea pig cerebral cortex, 25° C., 2 hours; read-out: ^125 I-CCK Brain IC50. The protocol: (§1) Screening of the novel compounds according to the present invention to determine biological activity and obtain an IC50 value for them, in order to identify significant CCK-antagonism, may be accomplished using an ^125 I-CCK receptor binding assay and in vitro isolated tissue preparations. These tests involve the following:
CCK receptor binding (brain) method
CCK-33 is radiolabeled and the binding is performed according to the description for the pancreas method, with modifications according to Saito et al., J. Neurochem., 37, 483-490, 1981.
Male Hartley guinea pigs (300-500 g) are sacrificed by decapitation, and the brains are removed and placed in ice-cold 50 mM Tris HCl (Trizma-7.4) [pH 7.4 at 25° C.]. The cerebral cortex is dissected and used as a receptor source and each gram of fresh guinea pig brain tissue is homogenized in 10 ml of Tris/Trizma buffer with a Brinkman polytron PT-10. The homogenates are centrifuged at 42,000 g for 15 minutes, then the resulting pellets are resuspended in 80 volumes of binding assay buffer (10 mM N-2-hydroxy-ethylpiperazine-N'-2-ethanesulfonic acid (HEPES), 5 mM MgCl2, 1 mM ethylene glycol-bis-(β-amino-ethyl-ether-N,N'-tetraacetic acid (EGTA), 0.4% BSA and 0.25 mg/ml bacitracin, pH 6.5).
The remainder of the binding assay method is as described for the pancreas method, except that the reaction mixtures are incubated at 25° C. for 2 hours before centrifugation.

Experiment [1] deals with T2, CCK receptor (pancreas) (Rattus norvegicus, UniProt P30551).
T2 construct: The whole pancreas of a male Sprague-Dawley rat; from tissue; host or cells: whole pancreas of male Sprague-Dawley rat, washed membrane homogenate
T2 sequence (P30551 1-444): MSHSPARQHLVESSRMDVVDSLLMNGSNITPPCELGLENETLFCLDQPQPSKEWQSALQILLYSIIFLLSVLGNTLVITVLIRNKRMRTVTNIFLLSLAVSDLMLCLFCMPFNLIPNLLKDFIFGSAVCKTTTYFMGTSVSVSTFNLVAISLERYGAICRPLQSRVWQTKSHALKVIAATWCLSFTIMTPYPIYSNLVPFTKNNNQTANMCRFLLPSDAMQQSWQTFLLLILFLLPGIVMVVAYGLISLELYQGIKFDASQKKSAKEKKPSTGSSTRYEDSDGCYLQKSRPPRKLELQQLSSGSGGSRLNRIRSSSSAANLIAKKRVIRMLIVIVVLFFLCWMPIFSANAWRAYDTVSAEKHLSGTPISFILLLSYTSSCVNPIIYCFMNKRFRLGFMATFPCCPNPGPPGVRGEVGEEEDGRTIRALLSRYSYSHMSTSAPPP
Description: CCK receptor binding (pancreas) method. The conditions noted are these: rat pancreas membranes, 37° C., 30 minutes; read-out: I-CCK-8 Pancreas IC50. The arrangement: species or system Sprague-Dawley rat. The protocol:
as §1
CCK receptor binding (pancreas) method
[…] (J. Biol. Chem., 254, 9349-9351, 1979). Receptor binding is performed according to Innis and Snyder (Proc. Natl. Acad. Sci., 77, 6917-6921, 1980), with the minor modification of adding the additional protease inhibitors, phenyl-methane sulfonyl fluoride and o-phenanthroline, which have no effect on the ^125 I-CCK receptor binding assay.
The whole pancreas of a male Sprague-Dawley rat (200-350 g), which has been sacrificed by decapitation, is dissected free of fat tissue and homogenized in 20 volumes of ice-cold 50 mM Tris HCl (pH 7.7 at 25° C.) with a Brinkman Polytron PT-10. The homogenates are centrifuged at 48,000 g for 10 minutes, then the resulting pellets are resuspended in Tris Buffer, centrifuged as above, and resuspended in 200 volumes of binding assay buffer (50 mM Tris HCl, pH 7.7 at 25° C., 5 mM dithiothreitol, 0.1 mM bacitracin, 1.2 mM phenylmethane sulfonyl fluoride and 0.5 mM o-phenanthroline).
For the binding assay, 25 μl of buffer (for total binding), or unlabeled CCK-8 sulfate sufficient to give a final concentration of 1 μM of CCK-8 (for nonspecific binding), or the compounds of the formula of the compounds according to the instant invention ([…]), are added to 450 μl of the membrane suspensions in microfuge tubes. All assays are run in duplicate or triplicate, and the reaction mixtures are incubated at 37° C. for 30 minutes and centrifuged in a Beckman Microfuge (4 minutes) immediately after adding 1 ml of ice-cold incubation buffer. The supernatant is aspirated and discarded, and the pellets are counted with a Beckman Gamma 5000.

In experiment [2] the test system is cholecystokinins in the gut. The conditions noted are these: prior compound; cited from earlier work.
Experiment [3] deals with T2, CCK receptor (pancreas). The conditions noted are these: prior compound, U.S. Pat. No. 4,530,790; cited from earlier work.
The next experiment concerns CCK receptor. The note with it: structure-function studies; cited from earlier work.

As for `CC(C)C[C@@H](NC(=O)OC(C)(C)C)C(=O)N1CC(C[C@@H]2NC(=O)c3ccccc3-n3c2nc2ccccc2c3=O)c2ccccc21` (single isomer, unassigned; isomer 1) [Example 6], the pIC50 on CCK receptor (brain) is under 4.00; on CCK receptor (pancreas) [1] it was 4.78.
Turning to `CC(C)C[C@@H](NC(=O)OC(C)(C)C)C(=O)N1CC(C[C@@H]2NC(=O)c3ccccc3N3C(=O)c4ccccc4NC23)c2ccccc21` (single isomer, unassigned; isomer 1) [Example 8], the negative-log IC50 (pIC50) at CCK receptor (brain) is 4.82; at CCK receptor (pancreas) [1], 4.31.
In the case of `CC(C)C[C@@H](NC(=O)OC(C)(C)C)C(=O)N1CC(C[C@@H]2NC(=O)c3ccccc3-n3c2nc2ccccc2c3=O)c2ccccc21` (single isomer, unassigned; isomer 2) [Example 7], the pIC50 at CCK receptor (brain) and at CCK receptor (pancreas) [1] was under 4.00 each time.
As to `CC(C)C[C@@H](NC(=O)OC(C)(C)C)C(=O)N1CC(C[C@@H]2NC(=O)c3ccccc3N3C(=O)c4ccccc4NC23)c2ccccc21` (single isomer, unassigned; isomer 2) [Example 9], the negative-log IC50 (pIC50) was 4.00 on CCK receptor (brain) and 4.47 on CCK receptor (pancreas) [1].
For the compound `O=C1N[C@@H](Cc2c[nH]c3ccccc23)c2nc3ccccc3c(=O)n2-c2ccccc21` [7β-[(1H-indol-3-yl)methyl]quinazolino(3,2-A) (1,4)benzodiazepin-5,13(6H,7H)dione], the “selectivity in inhibiting the function of cholecystokinins” value in experiment [2] is recorded as “selective in inhibiting the function of cholecystokinins in the gut”. Moreover, the negative logarithm of the IC50 (pIC50) on CCK receptor (pancreas) [3] is 4.59.
As to `O=C1N[C@@H](Cc2c[nH]c3ccccc23)C2Nc3ccccc3C(=O)N2c2ccccc21` (some centres unmarked) [Example 1, 7,7A-dihydro-7-(1H-indol-3-yl)methylquinazolino(3,2-B)-1,4-benzodiazepin-5,13-(6H,9H)-dione monohydrate], the negative-log IC50 (pIC50) is under 4.00 on CCK receptor (brain) and 4.92 on CCK receptor (pancreas) [1].
For `O=C1N[C@@H](CC2CNc3ccccc32)c2nc3ccccc3c(=O)n2-c2ccccc21` (some centres unmarked) [Example 2, 7-[(2,3-dihydro-1H-indol-3-yl)methyl]-quinazolino(3,2-A)-1,4-benzodiazepin-5,13-(6H,7H)-dione hemihydrate], in that order: under 4.00 and 4.57.
Take `CC(C)C[C@H](NC(=O)OC(C)(C)C)C(=O)n1cc(C[C@@H]2NC(=O)c3ccccc3-n3c2nc2ccccc2c3=O)c2ccccc21` [Example 3, 7-[(1-[2(S)-((1,1-dimethylethoxy)-carbonyl)amino-4-methylpentanoyl]-1H-indol-3-yl)methyl]quinazolino(3,2-A)-1,4-benzodiazepin-5,13-(6H,7H)-dione sesquihydrate]: the pIC50 at CCK receptor (brain) and on CCK receptor (pancreas) [1] was under 4.00 each time.
Take `CC(C)C[C@H](NC(=O)OC(C)(C)C)C(=O)N1CC(C[C@@H]2NC(=O)c3ccccc3-n3c2nc2ccccc2c3=O)c2ccccc21` (stereo partly drawn) [Example 4, 7-[(1-[2(S)-((1,1-dimethylethoxy)carbonyl)amino-4-methylpentanoyl]-2,3-dihydro-1H-indol-3-yl)methyl]quinazolino(3,2-A)-1,4-benzodiazepin-5,13-(6H,7H)-dione hemihydrate]: the pIC50 at CCK receptor (brain) was under 4.00; on CCK receptor (pancreas) [1], 5.47.
In the case of `CC(C)C[C@H](NC(=O)OC(C)(C)C)C(=O)N1CC(C[C@@H]2NC(=O)c3ccccc3N3C(=O)c4ccccc4NC23)c2ccccc21` (stereo partly drawn) [Example 5, 7-[(1-[2(S)-((1,1-dimethylethoxy)carbonyl)amino-4-methylpentanoyl]-2,3-dihydro-1H-indol-3-yl)methyl]quinazolino(3,2-A)-1,4-benzodiazepin-5,13-(5H,7H)-dione hydrate], the pIC50 at CCK receptor (brain) is under 4.00; at CCK receptor (pancreas) [1], 4.72.
Taken in the same sequence, the figures for `CC(C)C[C@H](NC(=O)OCc1ccccc1)C(=O)n1cc(C[C@@H]2NC(=O)c3ccccc3-n3c2nc2ccccc2c3=O)c2ccccc21` [Example 10, 7-[(1-[2(S)-phenylmethoxycarbonylamino-4-methylpentanoyl]-1H-indol-3-yl)methyl]quinazolino-(3,2-B)-1,4-benzodiazepin-5,13-(6H,7H)-dione] were under 4.00 and under 4.00.
For `CCCC(=O)Nc1nc2c(ncn2[C@@H]2O[C@@H]3COP(=O)(O)O[C@H]3[C@H]2OC(=O)CCC)c(=O)[nH]1` [dibutyryl cyclic GMP], the “CCK-receptor antagonist potency within derivatives of cyclic nucleotides” value in the experiment with CCK receptor is reported as “most potent”.
